This is an account of results in patent US20250197453A1, “COMPOSITION COMPRISING TAT PEPTIDE VARIANT AS ACTIVE INGREDIENT FOR PREVENTING OR TREATING METABOLIC DISEASES” (priority 2021, published 2025).

For this assay, the system named is 3T3-L1 cells. The experiment in a line: PEGn-TAT variants: inhibition of differentiation of 3T3-L1 cells and of fatty acid synthesis. The format is cell-based. How it is done: 3T3-L1 cells were cultured in DMEM (high glucose, pyruvate, GIBCO CAT #11995) supplemented with 10% calf serum and 1% penicillin-streptomycin (P/S). Cells were seeded in a 6-well culture plate, and when the cells reached a confluency of 60 to 70%, MDI, a differentiation initiation medium, was added at a 1× concentration. At this time, the cells were treated with each of TAT-38, X-FAT8, and PEGn-TAT at a concentration of 1 to 10 μM. After 2 days, MDI was replaced with insulin, and each of AT-38, X-FAT8, and PEGn-TAT was added to fresh medium every day during culture. From day 4, culture was continued for 4 days in maintenance medium. Thereafter, the cell status was checked and recorded every day. When necessary, the cells were fixed and the amount of fatty acids was analyzed by Oil-O red staining.

Consider “TACTNCYCAKCCFHCQVC-(Peg)7-RAKRRQRRR [PEG7-TAT]”, for which the “differentiation inhibitory ability and intracellular lipid accumulation, 3T3-L1 cells” value is “very high” (4 days (FIG. 12A) and 6 days (FIG. 12B) after the initiation of differentiation); “very high” (4 days after the initiation of differentiation, FIG. 11A). Further, the “differentiation inhibitory ability, 3T3-L1 cells” value (6 days after the induction of differentiation, FIG. 11B) is on record as “still significant”. In addition, under “8 days after the initiation of differentiation, FIG. 13”, the “differentiation and intracellular lipid accumulation, 3T3-L1 cells, Oil-O-Red staining” value was “strong inhibition of differentiation and inhibition of intracellular lipid accumulation”.
